The record followed here is patent US20060286167A1, “Compositions and methods for the treatment of neurodegenerative diseases” (priority 2005, published 2006).

Structures can show the parent of a compound that is named as a salt. Where two headings read alike, the source gives them in different places.

In the assay the test system is SMN protein in SMA patient fibroblasts (GM03813). As to the kind of experiment: SMN cytoblot assay (SMN protein levels in SMA patient fibroblasts). The assay is classed as cell-based, human. An excerpt:
One method for monitoring SMN protein levels in cells is through use of a cytoblot assay, in which cells are fixed and probed with an antibody against a target protein of interest. We have used a cytoblot assay to determine the concentration of SMN protein in SMA patient fibroblasts, and have identified small molecules that increase SMN protein concentration.
Using the cytoblot assay, we can clearly distinguish SMN protein levels in patient (GM03813) versus carrier fibroblast cells (GM03814), as shown in the FIGS. 1A and 1B.
• 1. Plate 50 μl per well of 300,000 cells/ml (15,000 cells per well) into Nunc white 384-well opaque-bottomed plates. • 2. Incubate plates at 37° C., 5% CO2 overnight. Day 2 • 1. Aspirate media from wells using Tecan plate washer. • 2. Fix cells by adding 20 μl/well of cold methanol (kept in −20° C. freezer). • 3. Incubate plates in 4° C. refrigerator for 10 minutes. • 4. Aspirate methanol using Tecan plate washer. • 5. Add 50 μl/well of primary Ab solution, (BD anti-SMN Ab diluted to 125 ng/ml in 10% fetal goat serum PBST), using multi-drop. • 6. Seal plates and incubate overnight at room temperature. Day 3 • 1. After 16-20 hrs incubation, wash plates with PBST 2× using Tecan plate washer. • 2. Add 50 μl of secondary Ab solution, (Santa Cruz goat anti-Mouse-HRP diluted to 67 ng/ml in 10% fetal goat serum PBST). • 3. Seal plates and incubate 2 hrs at room temperature. • 4. Wash plates with PBST 2× using Tecan plate washer. • 5. Add 50 μl/well 10% fetal goat serum PBST. • 6. Incubate in 4° C. refrigerator for 10 minutes. • 7. Aspirate plates using plate washer and add ECL luminescence solution, 20 μl/well. • 8. Measure luminescence on plate reader. Automated Scoring
We scored each compound based on the maximum signal-to-noise ratio (SNR) found among its dose curves. These scores are based on edge-corrected SMN data, using only plates that passed quality control. The untreated level on each plate was found by taking the median of the untreated wells, and for each treated well we calculated a log(T/U) ratio. Each curve was generated in triplicate on each plate, so each point on a compound's dose curve was obtained by determining the median for the replicate points. Each ratio thus has an error estimate from the scatter between the triplicate data points (1.5 times the median absolute deviation from the median). For each dose curve, we calculated the SNR for each data point log(T/U)/error, and chose the maximum point as our indicator of SMN induction activity. Since this is a signal-to-noise score, scores much greater than one indicate significant activity, assuming normal statistics. We decided to use a cutoff signal-to-noise ratio of 6. This selection represents a considerable enrichment towards visually-selected compounds. We identified 100 out of 2000 compounds producing scores >6. This included 13 of the 28 visual selections.

[1] abbreviates: maximum signal-to-noise ratio log(T/U)/error among a compound's dose curves, SMN cytoblot, cutoff 6, column Scoring says Automated or Visual selection.

On to `CC(C)=CCCC(C)CC=O` (stereo not drawn) [Citronellal], for which, under setting [1], the SNR amounted to 8.6.
The same measure, in the same setting: the same measure for `CCCCc1cccs1` [2-n-Butylthiophene]: 8.96; for `O=C(O)c1ccccc1OP(=O)(O)O` [Fosfosal]: 6.77; for `CC(=O)Nc1c(I)cc(I)c(C(=O)O)c1I` [Acetrizoate Sodium]: 12.8.
As to `S=[Se]=S` [Selenium Sulfide], the SNR under setting [1] was 7.08.
For Nonoxynol-9, under setting [1], the SNR is 7.
The same measure, in the same setting: with `C[C@H](CCC(=O)O)[C@H]1CC[C@H]2[C@@H]3[C@@H](O)C[C@@H]4C[C@H](O)CC[C@]4(C)[C@H]3CC[C@]12C` [Ursodiol] the figure was 9.2; with `CN(C)C(=O)Oc1ccc[n+](C)c1` [Pyridostigmine Bromide], 6.19.
On the same count and under the same terms, with `CN(C)[C@@H]1C(O)=C(C(N)=O)C(=O)[C@@]2(O)C(O)=C3C(=O)c4c(O)ccc(Cl)c4[C@@](C)(O)[C@H]3C[C@@H]12` [Chlortetracycline Hydrochloride] the figure was 10.4; with `CCCCC/C=C\C/C=C\CCCCCCCC(=O)OC` [Methyl Linoleate], 10.1.
With `CCn1nc(C(=O)O)c(=O)c2cc3c(cc21)OCO3` [Cinoxacin], the SNR under setting [1] amounted to 6.
Regarding `CCCN1C[C@H](CSC)C[C@@H]2c3cccc4[nH]cc(c34)C[C@H]21` [Pergolide Mesylate], the SNR under setting [1] is 7.69.
The same measure, in the same setting: the same measure for `C=CCOc1ccccc1OCC(O)CNC(C)C` (stereo not drawn) [Oxprenolol Hydrochloride]: 6.52.
Consider `O=C1Nc2ccc(Cl)cc2[C@@](C#CC2CC2)(C(F)(F)F)O1` [Efavirenz], for which the SNR under setting [1] stood at 13.1.
With `CC(CCc1ccc(O)cc1)NCCc1ccc(O)c(O)c1` (stereo not drawn) [Dobutamine Hydrochloride], the SNR under setting [1] is 6.47.
On the same count and under the same terms, the same measure for `CCC(=O)OCC(=O)[C@@]1(OC(=O)CC)[C@@H](C)C[C@H]2[C@@H]3CCC4=CC(=O)C=C[C@]4(C)[C@@]3(Cl)[C@@H](O)C[C@@]21C` [Beclomethasone Dipropionate]: 6.27; for `C=CCSC[C@H](N)C(=O)O` [S-Allyl-L-Cysteine]: 9.02; for Teicoplanin: 9.72.
For the molecule `CN1CCN(C2=Nc3ccccc3Oc3ccc(Cl)cc32)CC1` [Loxapine Hydrochloride], the SNR under setting [1] was 10.1.
Turning to `CC(C)(S)C(N)C(=O)O` (racemic) [dl-Penicillamine], under setting [1], the SNR is given as 9.63.
Still for that read-out and setting: with `CNCCNS(=O)(=O)c1cccc2cnccc12` [H-8] the figure was 9.52.
For `CC(Cc1cccc(C(F)(F)F)c1)NCCOC(=O)c1ccccc1` (stereo not drawn) [Benfluorex Hydrochloride], the SNR under setting [1] is reported as 7.11.
`O=S(=O)([O-])[O-].[Mn+2]` [Manganese Sulfate]: the SNR is 10.3.
On to `NCC1(CC(=O)O)CCCCC1` [Gabapentin], for which the SNR under setting [1] was 6.84.
As for `CC1CCC(=CC(=O)O)CC1` (stereo not drawn) [2-(4-methyl010cyclohexylidene) acetic acid], under setting [1], the SNR was 6.16.
On the same count and under the same terms, the same measure for `CC[C@]12CCCN3CCc4c(n(c5ccccc45)[C@@](O)(C(=O)OC)C1)[C@@H]32` [Vincamine]: 6.94.
Regarding Ferrous Sulfate, the SNR stood at 7.55.
For the molecule `CN(C)CCC(O)(c1ccccc1)c1ccccc1Cl` (stereo not drawn) [Chlophedianol Hydrochloride], the SNR under setting [1] is given as 7.44.
On the same count and under the same terms, the same measure for `C[N+]1(CCC(C(N)=O)(c2ccccc2)c2ccccc2)CCCCC1` [Fenpiverinium Bromide]: 7.49; for `CC(=O)Oc1cc(C(C)C)c(OCCN(C)C)cc1C` [Moxisylyte Hydrochloride]: 14.3; for `CC(=O)OC/C=C(\C)CCC=C(C)C` [Geranyl Acetate]: 6.71.
The same measure, in the same setting: the same measure for `NCC[C@H](O)C(=O)N[C@@H]1C[C@H](N)[C@@H](O[C@H]2O[C@H](CN)[C@@H](O)[C@H](O)[C@H]2O)[C@H](O)[C@H]1O[C@H]1O[C@H](CO)[C@@H](O)[C@H](N)[C@H]1O.O=S(=O)(O)O.O=S(=O)(O)O` [Amikacin Sulfate]: 7.7; for `CN(CC(=O)O)C(=N)N` [Creatine]: 8.34.
The same measure, in the same setting: the same measure for `O=C1O[C@H]([C@@H](O)CO)C(O)=C1O` [Ascorbic Acid]: 6.29; for `CC(C)(C)OC(=O)N1CCCNCC1` [1-Boc-homopiperazine]: 6.66.
Take `CNC[C@H](O)c1ccc(O)c(O)c1` [Epinephrine Bitartrate]: the SNR under setting [1] stood at 8.26.
As to `[Cl][Cu][Cl]` [Cupric Chloride], under setting [1], the SNR is on record as 12.1.
On to `[Ca+2].[Cl-].[Cl-]` [Calcium Chloride], for which the SNR came to 7.63.
Regarding `C[C@H]1COc2c(C3(N)CC3)c(F)cc3c(=O)c(C(=O)O)cn1c23` [Pazufloxacin], under setting [1], the SNR is 7.83.
